Reference: patent US20130029970A1 (priority 2009, published 2013)

Assays:
[1] = target: T1, recombinant human cannabinoid receptor CB2 (Homo sapiens, UniProt P34972); test: Cannabinoid receptor radioligand binding assay, [3H]-CP 55,940 displacement, hCB2
T1 construct: (cDNA clone) CNR0200000
In short: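 Membranes from hCB2-transfected cells, prepared by 1000×g then 40,000×g centrifugation, resuspended in 20 mM HEPES pH 7.4, 5 mM MgCl2, 1 mM EDTA, 10% sucrose.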

[2] = target: T2, human CB2 (hCB2) (Homo sapiens, UniProt P34972); test: 35S GTPγS binding assay, hCB2 agonist; format: biochemical; details: GTPγS agonist, HEK-293 membranes; read-out: hCB2 EC50 (GTPyS ag)
T2 construct: (cDNA clone) CNR0200000
T2 sequence (P34972 whole entry): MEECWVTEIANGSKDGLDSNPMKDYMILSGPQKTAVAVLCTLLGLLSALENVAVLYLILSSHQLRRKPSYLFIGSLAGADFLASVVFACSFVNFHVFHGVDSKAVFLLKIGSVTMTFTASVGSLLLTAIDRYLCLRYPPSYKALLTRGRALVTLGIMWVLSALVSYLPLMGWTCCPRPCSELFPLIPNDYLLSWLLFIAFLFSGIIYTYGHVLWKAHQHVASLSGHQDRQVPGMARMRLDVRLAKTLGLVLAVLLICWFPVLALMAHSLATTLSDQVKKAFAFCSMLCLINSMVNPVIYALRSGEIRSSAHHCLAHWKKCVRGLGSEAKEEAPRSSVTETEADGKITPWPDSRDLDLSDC
In short: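 Membranes (5 μg) from cells transfected with hCB2 cDNA in pcDNA3.1+ incubated with SPA beads, 0.1 nM [35S]GTPγS and 20 uM GDP in 50 mM HEPES pH 7.4, 100 mM NaCl, 5 mM MgCl2, 0.001% saponin, ± test compound. Incubation 90 min at room temperature; bound label read by scintillation counting.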

[3] = target: T3, human CB2 receptors (Homo sapiens, UniProt P34972); test: cAMP assay in HEK-293 cells, hCB2 agonist; format: cell-based; details: inhibition of forskolin-stimulated cAMP, HEK-293 cells; read-out: hCB2 EC50 (cAMP ag)
T3 construct: (cDNA clone) CNR0200000
T3 sequence (P34972 whole entry): as above
In short: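 HEK-293 cells stably expressing human CB2, suspended at 1,500,000 cells/mL in HBSS with 10 mM HEPES and 0.1% fatty-acid-free BSA, exposed to test compound plus forskolin (90 uM in the 3× compound solution) for 30 min at 37° C.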

T1 sequence (P34972 whole entry): as above

| Compound | IC50 [1] | EC50 [2] | EC50 [3] |
| --- | --- | --- | --- |
| CCS(=O)(=O)n1c(C)cc2cc(C(=O)c3cccc(Cl)c3Cl)sc21 [Compound 25, (2,3-Dichlorophenyl)(6-(ethylsulfonyl)-5-methyl-6H-thieno[2,3-b]pyrrol-2-yl)methanone] | < 100 nM | < 100 nM | < 100 nM |
| COc1ncccc1C(=O)c1cc2cc(C)n(CCN3CCOCC3)c2s1 [Compound 47, (2-Methoxypyridin-3-yl)(5-methyl-6-(2-morpholinoethyl)-6H-thieno[2,3-b]pyrrol-2-yl)methanone] | 1000 to 10000 nM | 100 to 1000 nM | < 100 nM |
| Cc1cc2cc(Cc3cccc(Cl)c3Cl)sc2n1CCN1CCOCC1 [Compound 32, 4-(2-(2-(2,3-Dichlorobenzyl)-5-methyl-6H-thieno[2,3-b]pyrrol-6-yl)ethyl)morpholine] | < 100 nM | < 100 nM | < 100 nM |
| COc1ccc(C(=O)c2cc3cc(C)n(CCN4CCC(OC)C4)c3s2)cn1 (stereo not drawn) [Compound 147, (6-methoxypyridin-3-yl)(6-(2-(3-methoxypyrrolidin-1-yl)ethyl)-5-methyl-6H-thieno[2,3-b]pyrrol-2-yl)methanone] | 1000 to 10000 nM | 100 to 1000 nM | 100 to 1000 nM |
| Cc1cc2cc(C(=O)c3ccccc3)sc2n1CCN1CCOCC1 [Compound 7, (5-Methyl-6-(2-morpholinoethyl)-6H-thieno[2,3-b]pyrrol-2-yl)(phenyl)methanone] | 100 to 1000 nM | 100 to 1000 nM | < 100 nM |
| COc1ccc(C(c2cc3cc(C)n(CCN4CCOCC4)c3s2)C(F)(F)F)cc1 (stereo not drawn) [Compound 141, 4-(2-(5-methyl-2-(2,2,2-trifluoro-1-(4-methoxyphenyl)ethyl)-6H-thieno[2,3-b]pyrrol-6-yl)ethyl)morpholine] | 100 to 1000 nM | 100 to 1000 nM | < 100 nM |
| Cc1cc2cc(C(=O)c3cccc(Cl)c3Cl)sc2n1CC1CCOCC1 [Compound 31, (2,3-Dichlorophenyl)(5-methyl-6-((tetrahydro-2H-pyran-4-yl)methyl)-6H-thieno[2,3-b]pyrrol-2-yl)methanone] | < 100 nM | < 100 nM | < 100 nM |
| CCS(=O)(=O)n1c(C)cc2cc(C(=O)c3ccccc3Cl)sc21 [Compound 42, (2-Chlorophenyl)(6-(ethylsulfonyl)-5-methyl-6H-thieno[2,3-b]pyrrol-2-yl)methanone] | 100 to 1000 nM | < 100 nM | < 100 nM |
| Cc1cc2cc(C(=O)c3cccc(Cl)c3)sc2n1CCN1CCOCC1 [Compound 4, (3-Chlorophenyl)(5-methyl-6-(2-morpholinoethyl)-6H-thieno[2,3-b]pyrrol-2-yl)methanone] | 100 to 1000 nM | < 100 nM | < 100 nM |
| COc1ccc(C(=O)c2cc3cc(C)n(CCCNS(C)(=O)=O)c3s2)cc1 [Compound 44, N-(3-(2-(4-methoxybenzoyl)-5-methyl-6H-thieno[2,3-b]pyrrol-6-yl)propyl)methanesulfonamide] | < 100 nM | < 100 nM | < 100 nM |
| COc1ccc(C(=O)c2cc3cc(C)n(CCCNS(C)(=O)=O)c3s2)c(Cl)c1 [Compound 91, N-(3-(2-(2-Chloro-4-methoxybenzoyl)-5-methyl-6H-thieno[2,3-b]pyrrol-6-yl)propyl)methanesulfonamide] | < 100 nM | < 100 nM | < 100 nM |
| Cc1cc2cc(C(=O)c3ccc(C#N)cc3)sc2n1CCN1CCOCC1 [Compound 129, 4-(5-methyl-6-(2-morpholinoethyl)-6H-thieno[2,3-b]pyrrole-2-carbonyl)benzonitrile] | 100 to 1000 nM | < 100 nM | 100 to 1000 nM |
| COc1cccc(C(=O)c2cc3cc(C)n(CCN4CCOCC4)c3s2)c1 [Compound 26, (3-Methoxyphenyl)(5-methyl-6-(2-morpholinoethyl)-6H-thieno[2,3-b]pyrrol-2-yl)methanone] | < 100 nM | < 100 nM | < 100 nM |
| COc1ccc(C(=O)c2cc3cc(C)n(CCN4CCOCC4)c3s2)cc1F [Compound 128, (3-fluoro-4-methoxyphenyl)(5-methyl-6-(2-morpholinoethyl)-6H-thieno[2,3-b]pyrrol-2-yl)methanone] | 100 to 1000 nM | < 100 nM | 100 to 1000 nM |
| COc1cc(F)ccc1C(=O)c1cc2cc(C)n(CCN3CCOCC3)c2s1 [Compound 133, (4-fluoro-2-methoxyphenyl)(5-methyl-6-(2-morpholinoethyl)-6H-thieno[2,3-b]pyrrol-2-yl)methanone] | < 100 nM | < 100 nM | < 100 nM |
| Cc1cc2cc(C(=O)c3cccc(Cl)c3Cl)sc2n1S(=O)(=O)C(C)C [Compound 38, (2,3-Dichlorophenyl)(6-(isopropylsulfonyl)-5-methyl-6H-thieno[2,3-b]pyrrol-2-yl)methanone] | < 100 nM | < 100 nM | < 100 nM |

| Compound | IC50 [1] | EC50 [2] | EC50 [3] |
| --- | --- | --- | --- |
| COc1ccc(C(=O)c2cc3cc(C)n(Cc4ccccc4)c3s2)cc1 [Compound 84, (6-Benzyl-5-methyl-6H-thieno[2,3-b]pyrrol-2-yl)(4-methoxyphenyl)methanone] | 100 to 1000 nM | 100 to 1000 nM | < 100 nM |
| Cc1cc2cc(C(=O)c3ccc(F)cc3)sc2n1CCN1CCOCC1 [Compound 54, (4-Fluorophenyl)(5-methyl-6-(2-morpholinoethyl)-6H-thieno[2,3-b]pyrrol-2-yl)methanone] | 100 to 1000 nM | < 100 nM | < 100 nM |
| COc1ccc(C(=O)c2cc3cc(C)n(S(=O)(=O)N(C)C)c3s2)cc1 [Compound 51, 2-(4-Methoxybenzoyl)-N,N,5-trimethyl-6H-thieno[2,3-b]pyrrole-6-sulfonamide] | < 100 nM | < 100 nM | < 100 nM |
| Cc1ccccc1C(=O)c1cc2cc(C)n(CCN3CCOCC3)c2s1 [Compound 12, (5-Methyl-6-(2-morpholinoethyl)-6H-thieno[2,3-b]pyrrol-2-yl)(o-tolyl)methanone] | < 100 nM | < 100 nM | < 100 nM |
| CCS(=O)(=O)n1c(C)cc2cc(C(=O)c3ccc(OC)cc3)sc21 [Compound 56, (6-(Ethylsulfonyl)-5-methyl-6H-thieno[2,3-b]pyrrol-2-yl)(4-methoxyphenyl)methanone] | 100 to 1000 nM | < 100 nM | < 100 nM |
| Cc1cc2cc(C(=O)c3ccc(C(F)(F)F)cc3)sc2n1CCN1CCOCC1 [Compound 60, (5-Methyl-6-(2-morpholinoethyl)-6H-thieno[2,3-b]pyrrol-2-yl)(4-(trifluoromethyl)phenyl)methanone] | 1000 to 10000 nM | 1000 to 10000 nM | < 100 nM |
| COc1ccc(C(=O)c2cc3cc(C)n(CCCNS(C)(=O)=O)c3s2)c(F)c1 [Compound 87, N-(3-(2-(2-Fluoro-4-methoxybenzoyl)-5-methyl-6H-thieno[2,3-b]pyrrol-6-yl)propyl)methanesulfonamide] | 100 to 1000 nM | < 100 nM | < 100 nM |
| Cc1cc2cc(C(=O)c3ccc(Cl)cc3Cl)sc2n1CCN1CCOCC1 [Compound 10, (2,4-Dichlorophenyl)(5-methyl-6-(2-morpholinoethyl)-6H-thieno[2,3-b]pyrrol-2-yl)methanone] | < 100 nM | < 100 nM | < 100 nM |
| COc1ccc(C(O)(c2cc3cc(C)n(CCN4CCOCC4)c3s2)C(F)(F)F)cc1 (stereo not drawn) [Compound 138, 2,2,2-trifluoro-1-(4-methoxyphenyl)-1-(5-methyl-6-(2-morpholinoethyl)-6H-thieno[2,3-b]pyrrol-2-yl)ethanol] | 100 to 1000 nM | < 100 nM | < 100 nM |
| COc1ccc(C(=O)c2cc3cc(C)n(CCN4CCOCC4)c3s2)c(Cl)c1 [Compound 70, (2-Chloro-4-methoxyphenyl)(5-methyl-6-(2-morpholinoethyl)-6H-thieno[2,3-b]pyrrol-2-yl)methanone] | < 100 nM | < 100 nM | < 100 nM |
| Cc1cc2cc(C(=O)c3cccc(Cl)c3Cl)sc2n1CCCNS(C)(=O)=O [Compound 37, N-(3-(2-(2,3-Dichlorobenzoyl)-5-methyl-6H-thieno[2,3-b]pyrrol-6-yl)propyl)methanesulfonamide] | < 100 nM | < 100 nM | < 100 nM |
| Cc1ccc(C(=N)c2cc3cc(C)n(CCN4CCOCC4)c3s2)cc1 [Compound 121, (5-methyl-6-(2-morpholinoethyl)-6H-thieno[2,3-b]pyrrol-2-yl)(p-tolyl)methanimine] | 100 to 1000 nM | < 100 nM | < 100 nM |
| COc1ccc(C(=O)c2cc3cc(C)n(CCN4CCOCC4)c3s2)c(C)n1 [Compound 136, (6-methoxy-2-methylpyridin-3-yl)(5-methyl-6-(2-morpholinoethyl)-6H-thieno[2,3-b]pyrrol-2-yl)methanone] | < 100 nM | < 100 nM | < 100 nM |
| COc1ccc(C(=O)c2cc3cc(C)n(CCN4CCOCC4)c3s2)cn1 [Compound 58, (6-Methoxypyridin-3-yl)(5-methyl-6-(2-morpholinoethyl)-6H-thieno[2,3-b]pyrrol-2-yl)methanone] | 100 to 1000 nM | < 100 nM | < 100 nM |
| CCn1c(C)cc2cc(C(=O)c3cccc(Cl)c3Cl)sc21 [Compound 19, (2,3-Dichlorophenyl)(6-ethyl-5-methyl-6H-thieno[2,3-b]pyrrol-2-yl)methanone] | 100 to 1000 nM | 100 to 1000 nM | < 100 nM |
